Values of other authors, collected in patent US20260114463A1, “COATING LIQUID COMPOSITION, PRODUCTION METHOD THEREFOR, AND LIQUID CONTAINING LOW-TEMPERATURE DAMAGE INHIBITOR” (Mitsubishi Chemical Corporation, priority 2023, published 2026).

Settings: raw material data

Glycerin monocaprylate [Example M-100]
HLB: 7.0
